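A five-concentration, 48-hour dose response in 96-well plates underlies each endpoint, interpolated linearly between surrounding concentrations. TGI is the concentration that stops growth completely.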
What was measured:
Assay in all cases: NCI tumour cell line growth inhibition, 48 h
DLD-1 colon = system: DLD-1 colon
DMS 114 small cell lung = system: DMS 114 small cell lung
DMS 273 small cell lung = system: DMS 273 small cell lung
HOP-18 NSCLC = system: HOP-18 NSCLC
KM20L2 colon = system: KM20L2 colon
M19-MEL melanoma = system: M19-MEL melanoma
P388 leukemia = system: P388 leukemia
P388/ADR leukemia = system: P388/ADR leukemia
SN12K1 renal = system: SN12K1 renal
SNB-78 CNS = system: SNB-78 CNS
LXFL 529 NSCLC = system: LXFL 529 NSCLC
RXF-631 renal = system: RXF-631 renal

Row | SMILES | TGI (DLD-1 colon) | TGI (DMS 114 small cell lung) | TGI (DMS 273 small cell lung) | TGI (HOP-18 NSCLC) | TGI (KM20L2 colon) | TGI (M19-MEL melanoma) | TGI (P388 leukemia) | TGI (P388/ADR leukemia) | TGI (SN12K1 renal) | TGI (SNB-78 CNS) | TGI (LXFL 529 NSCLC) | TGI (RXF-631 renal)
1 | N#CC(OC1OC(COC2OC(CO)C(O)C(O)C2O)C(O)C(O)C1O)c1ccccc1 (configuration not stated) | > 225 µM | > 225 µM | > 225 µM | > 225 µM | > 225 µM | > 225 µM | > 225 µM | > 225 µM | > 225 µM | > 225 µM | – | –
2 | CN1C(=O)CSC1=S | > 100 µM | > 100 µM | > 100 µM | > 100 µM | > 100 µM | > 100 µM | – | – | – | > 100 µM | > 100 µM | –
3 | COc1ccc(/C(Cl)=C(\C=O)c2ccc(OC)c(OC)c2)cc1 | – | > 100 µM | – | > 100 µM | > 100 µM | > 100 µM | – | – | – | > 100 µM | > 100 µM | > 100 µM
4 | O=C1NP23(OCCO2)Oc2ccccc2C3(C(F)(F)F)O1 (configuration not stated) | > 100 µM | > 100 µM | > 100 µM | > 100 µM | – | > 100 µM | – | – | – | > 100 µM | > 100 µM | –

From PubChem BioAssay (NCI)
